{
  "source": "patent US9453008B2",
  "about": "“Antithrombotic and antiatherosclerotic agent and method for producing same (variants)” (PROTON OOO, priority 2011, dated 2016)",
  "key": {"[1]": {"tested_on": "pressor effect of angiotensin I", "experiment": "Pressor effect of angiotensin I after intravenous administration in normotensive narcotized rats", "type": "in vivo, rat", "procedure": "(§1) The experiments were performed on spontaneously hypertensive (SHT) and normotensive (NT) narcotized male rats using intravenous administration of the tested compounds. The ability of the compound to reduce arterial blood pressure (BP) in SHT rats and prevent spasmogenic reactions to noradrenalin (NA) and angiotensin I (AI).\n(§2) The effects of the compound of formula I on the pressor effects of noradrenaline (NA, 10-15 μg/kg), mesatonum (M, 5 μg/kg) and angiotensin (AI, 5 μg/kg) were studied on normotensive narcotized […]. Antihypertensive action of the compound of formula I was assessed relative to the pressor effects of the control administration of the aforementioned compounds."}, "[2]": {"tested_on": "pressor effect of noradrenaline", "experiment": "Pressor effect of noradrenaline after intravenous administration in normotensive narcotized rats", "type": "in vivo, rat", "procedure": "as §1, §2"}, "[3]": {"tested_on": "spontaneously hypertensive (SHT) rats", "experiment": "Blood pressure in narcotized SHT rats, intravenous administration", "type": "in vivo, rat", "procedure": "as §1\nThe compound of formula I was used as a solution in 3% aqueous DMSO. Sodium nitroprusside and nitroglycerin were used as reference drugs.\nThe administration of the compound of formula I in dose range 0.01-0.1-0.5 and 1.0 mg/kg has exerted dose-dependent antihypertensive effect ranging in time from 30-40 s to 60 min and more."}, "non-narcotized SHT rats": {"tested_on": "non-narcotized SHT rats", "experiment": "Blood pressure in non-narcotized SHT rats, intragastric administration (non-invasive BP measurement)", "type": "in vivo, rat", "conditions": "10 mg/kg orally, 0 - absence of effect", "procedure": "In experiments on non-narcotized SHT rats intragastric administration of the compound of formula I has caused dose-dependent reduction of BP, the duration of which was increased correspondingly with dose increase (maximal duration of effect 5 hours after single administration of 50 mg/kg dose, Table 3)."}, "[4]": {"conditions": "higher doses (above 0.01 mg/kg) intravenous"}},
  "data": [
    {"smiles": "O=[N+]([O-])OCC(CO[N+](=O)[O-])O[N+](=O)[O-]", "note": "[Nitroglycerin, reference compound]", "values": [
      {"measurement": "Inhibition of pressor reaction (%) induced by Angiotensin I", "setting": "[1]; 0.5 mg/kg intravenous, 0 - absence of effect", "result": 0, "unit": "%"},
      {"measurement": "Inhibition of pressor reaction (%) induced by Angiotensin I", "setting": "[1]; 1.0 mg/kg intravenous", "result": "25-30%"},
      {"measurement": "Inhibition of pressor reaction (%) induced by Noradrenaline", "setting": "[2]; 0.5 mg/kg intravenous", "result": "20-25%"},
      {"measurement": "Inhibition of pressor reaction (%) induced by Noradrenaline", "setting": "[2]; 1.0 mg/kg intravenous", "result": "40-50%"},
      {"measurement": "Duration of BP reduction", "setting": "[3]; 0.01 mg/kg dose intravenous", "result": "30 to 40", "unit": "s"},
      {"measurement": "Reduction of BP", "setting": "[3]; 0.01 mg/kg dose intravenous", "result": "10-15 mmHg"},
      {"measurement": "Reduction of BP, mmHg (Δ)", "setting": "[3]; 0.01 mg/kg intravenously, 10-20 s", "result": "−5", "unit": "mmHg"},
      {"measurement": "Reduction of BP, mmHg (Δ)", "setting": "[3]; 0.01 mg/kg intravenously, 5 min", "result": "−10 ± 3", "unit": "mmHg"},
      {"measurement": "Reduction of BP, mmHg (Δ)", "setting": "[3]; 0.01 mg/kg intravenously, 30 min", "result": "−3", "unit": "mmHg"},
      {"measurement": "Reduction of BP, mmHg (Δ)", "setting": "[3]; 0.1 mg/kg intravenously, 10-20 s", "result": "−7 ± 3", "unit": "mmHg"},
      {"measurement": "Reduction of BP, mmHg (Δ)", "setting": "[3]; 0.1 mg/kg intravenously, 5 min", "result": "−20 ± 5", "unit": "mmHg"},
      {"measurement": "Reduction of BP, mmHg (Δ)", "setting": "[3]; 0.1 mg/kg intravenously, 30 min", "result": "−5", "unit": "mmHg"},
      {"measurement": "Reduction of BP, mmHg (Δ)", "setting": "[3]; 0.5 mg/kg intravenously, 10-20 s", "result": "−12 ± 3", "unit": "mmHg"},
      {"measurement": "Reduction of BP, mmHg (Δ)", "setting": "[3]; 0.5 mg/kg intravenously, 5 min", "result": "−25 ± 7", "unit": "mmHg"},
      {"measurement": "Reduction of BP, mmHg (Δ)", "setting": "[3]; 0.5 mg/kg intravenously, 30 min", "result": "−5", "unit": "mmHg"},
      {"measurement": "Reduction of BP, mmHg (Δ)", "setting": "[3]; 1.0 mg/kg intravenously, 10-20 s", "result": "−10 ± 3", "unit": "mmHg"},
      {"measurement": "Reduction of BP, mmHg (Δ)", "setting": "[3]; 1.0 mg/kg intravenously, 5 min", "result": "−25 ± 8", "unit": "mmHg"},
      {"measurement": "Reduction of BP, mmHg (Δ)", "setting": "[3]; 1.0 mg/kg intravenously, 30 min", "result": "−7 ± 3", "unit": "mmHg"},
      {"measurement": "Duration of BP reduction", "setting": "[3]; [4]", "result": "300 to 360", "unit": "s"},
      {"measurement": "Reduction of BP", "setting": "[3]; [4]", "result": "20-25 mmHg"},
      {"measurement": "Reduction of BP, mmHg", "setting": "non-narcotized SHT rats; time column 1, 1 h after dosing", "result": 0, "unit": "mmHg"},
      {"measurement": "Reduction of BP, mmHg", "setting": "non-narcotized SHT rats; time column 2, 2 h after dosing", "result": 0, "unit": "mmHg"},
      {"measurement": "Reduction of BP, mmHg", "setting": "non-narcotized SHT rats; time column 3, 3 h after dosing", "result": 0, "unit": "mmHg"},
      {"measurement": "Reduction of BP, mmHg", "setting": "non-narcotized SHT rats; time column 4, 4 h after dosing", "result": 0, "unit": "mmHg"},
      {"measurement": "Reduction of BP, mmHg", "setting": "non-narcotized SHT rats; time column 5, 5 h after dosing", "result": 0, "unit": "mmHg"},
      {"measurement": "Reduction of BP, mmHg", "setting": "non-narcotized SHT rats; time column 6, 6 h after dosing", "result": 0, "unit": "mmHg"}
    ]},
    {"smiles": "CN1CC(C(O)C(O)C(O)CO)OC1=C(C#N)C=C1Nc2ccccc2C1=O", "note": "(stereo not shown) (hydrate or solvate) [X, 2-[2-Cyano-2-[3-methyl-5-(1,2,3,4-tetrahydroxybutyl)oxazolidin-2-ylidene]ethylidene]indolin-3-one]", "values": [
      {"measurement": "melting point", "result": "237 °C (dec.)"}
    ]},
    {"smiles": "CN1CCOC1=C(C#N)C=C1Nc2ccccc2C1=O", "note": "[IX, 2-[2-Cyano-2-(3-methyloxazolidin-2-ylidene)ethylidene]indolin-3-one]", "values": [
      {"measurement": "melting point", "result": "222 to 226 °C (dec.)"}
    ]}
  ]
}
